One assay deals with T1, hP2X1R (Homo sapiens, UniProt P51575).
T1 construct: expressed in transfected cells; host or cells: Xenopus laevis oocytes (cRNA injection)
Briefly: Two-electrode voltage clamp of ATP-evoked currents in Xenopus oocytes. The format is cell-based.

In the next assay the target is T2, P2X7R point mutant L97P (Homo sapiens, UniProt Q99572, I21V/L97P/M24R/N16P/N25R/Q22R/R20V/S23N/T19I/Y26L).
T2 construct: expressed in transfected cells; host or cells: Xenopus laevis oocytes (cRNA injection)
Briefly: cell-based.

The subject of assay [1] is P2X7R left flipper point mutant T283A. Put plainly: Two-electrode voltage clamp of ATP-evoked currents in Xenopus oocytes. The format is cell-based, human. Background: In two-electrode clamp one electrode senses voltage and the other passes current.
Method: Injected oocytes were stored at 16°C in ND96 buffer [in millimolar concentrations, NaCl 96, KCl 2, CaCl2 1.8, MgCl2 1, sodium pyruvate 5, and HEPES 5 (pH 7.6) supplemented with 50 μg/ml gentamycin and 50 μg/ml tetracycline]. Three to seven days postinjection two-electrode voltage clamp recordings were made from oocytes bathed in divalent-free ND96 buffer (in millimolar concentrations, NaCl 96, KCl 2, sodium pyruvate 5, HEPES 5, and 0.1 flufenamic acid, pH 7.6). Oocytes were voltage clamped at a holding potential of −60 mV with a GeneClamp500B amplifier (Molecular Devices).
Electrophysiological traces were digitized with a Digidata 1322A and collected using pCLAMP 8.2 software (Molecular Devices, Menlo Park, CA). An EC90 concentration of ATP was used to test antagonist sensitivity for the P2X7-2Nβ and mutant receptors [ATP sensitivity of the chimeras and mutants are reported in [Allsopp et al. (2017)]] to standardize for any changes in ATP sensitivity.
Inhibition by the antagonists was expressed as the percentage of the peak current amplitude of an EC90 concentration of ATP recorded before the application of antagonist (ATP gave reproducible responses to ATP in the absence of antagonist). […] Any significant differences from the P2X7-2Nβ control were calculated by one-way analysis of variance, followed by Dunnett’s test (using GraphPad Prism 6). […]
Assay [2] concerns P2X7R left flipper point mutant D280A. Described as above. Type of assay: cell-based, human.
Method: (§1) The production of the correct mutations and absence of coding errors was determined by DNA sequencing (Automated ABI Sequencing Service, University of Leicester, UK). cRNA was generated for the mutants and 50 nl (50 ng) was injected into manually defoliculated stage V Xenopus laevis oocytes using an Inject+Matic microinjector (J.A. Gabay, Inject+Matic, Geneva, Switzerland). Injected oocytes were stored at 16°C in ND96 buffer [in millimolar concentrations, NaCl 96, KCl 2, CaCl2 1.8, MgCl2 1, sodium pyruvate 5, and HEPES 5 (pH 7.6) supplemented with 50 μg/ml gentamycin and 50 μg/ml tetracycline]. Three to seven days postinjection two-electrode voltage clamp recordings were made from oocytes bathed in divalent-free ND96 buffer (in millimolar concentrations, NaCl 96, KCl 2, sodium pyruvate 5, HEPES 5, and 0.1 flufenamic acid, pH 7.6). Oocytes were voltage clamped at a holding potential of −60 mV with a GeneClamp500B amplifier (Molecular Devices).
(§2) Inhibition by the antagonists was expressed as the percentage of the peak current amplitude of an EC90 concentration of ATP recorded before the application of antagonist (ATP gave reproducible responses to ATP in the absence of antagonist). Inhibition curves were fitted with the Hill equation (variable slope) using GraphPad Prism 6 (GraphPad Software, San Diego, CA). […]
Assay [3] relates to chimeric P2X7/1 receptor 112–118. Briefly: cell-based. Type of assay: cell-based, human. The following applies: chimera 112–118.
Method: Additional point mutants were made using the QuikChange mutagenesis kit (Stratagene California, La Jolla, CA). The production of the correct mutations and absence of coding errors was determined by DNA sequencing (Automated ABI Sequencing Service, University of Leicester, UK). cRNA was generated for the mutants and 50 nl (50 ng) was injected into manually defoliculated stage V Xenopus laevis oocytes using an Inject+Matic microinjector (J.A. Gabay, Inject+Matic, Geneva, Switzerland). Injected oocytes were stored at 16°C in ND96 buffer [in millimolar concentrations, NaCl 96, KCl 2, CaCl2 1.8, MgCl2 1, sodium pyruvate 5, and HEPES 5 (pH 7.6) supplemented with 50 μg/ml gentamycin and 50 μg/ml tetracycline]. Three to seven days postinjection two-electrode voltage clamp recordings were made from oocytes bathed in divalent-free ND96 buffer (in millimolar concentrations, NaCl 96, KCl 2, sodium pyruvate 5, HEPES 5, and 0.1 flufenamic acid, pH 7.6). Oocytes were voltage clamped at a holding potential of −60 mV with a GeneClamp500B amplifier (Molecular Devices).
(§3) Inhibition by the antagonists was expressed as the percentage of the peak current amplitude of an EC90 concentration of ATP recorded before the application of antagonist (ATP gave reproducible responses to ATP in the absence of antagonist). Inhibition curves were fitted with the Hill equation (variable slope) using GraphPad Prism 6 (GraphPad Software, San Diego, CA). […] Individual concentration-response curves were generated for individual experiments, and statistical analysis was carried out on the data generated. […] Data are shown as mean ± S.E.M. In all cases n ≥ 3 for all data points.
In assay [4] the target is T3, chimeric P2X7R with left flipper 280–284 of P2X4 (Homo sapiens, UniProt Q99572, D280T/I21V/K281R/M24R/N16P/N25R/N284E/Q22R/R20V/S23N/T19I/T282D/T283V/Y26L).
T3 sequence (Q99572 1-595 N16P/T19I/R20V/I21V/Q22R/S23N/M24R/N25R/Y26L/D280T/K281R/T282D/T283V/N284E): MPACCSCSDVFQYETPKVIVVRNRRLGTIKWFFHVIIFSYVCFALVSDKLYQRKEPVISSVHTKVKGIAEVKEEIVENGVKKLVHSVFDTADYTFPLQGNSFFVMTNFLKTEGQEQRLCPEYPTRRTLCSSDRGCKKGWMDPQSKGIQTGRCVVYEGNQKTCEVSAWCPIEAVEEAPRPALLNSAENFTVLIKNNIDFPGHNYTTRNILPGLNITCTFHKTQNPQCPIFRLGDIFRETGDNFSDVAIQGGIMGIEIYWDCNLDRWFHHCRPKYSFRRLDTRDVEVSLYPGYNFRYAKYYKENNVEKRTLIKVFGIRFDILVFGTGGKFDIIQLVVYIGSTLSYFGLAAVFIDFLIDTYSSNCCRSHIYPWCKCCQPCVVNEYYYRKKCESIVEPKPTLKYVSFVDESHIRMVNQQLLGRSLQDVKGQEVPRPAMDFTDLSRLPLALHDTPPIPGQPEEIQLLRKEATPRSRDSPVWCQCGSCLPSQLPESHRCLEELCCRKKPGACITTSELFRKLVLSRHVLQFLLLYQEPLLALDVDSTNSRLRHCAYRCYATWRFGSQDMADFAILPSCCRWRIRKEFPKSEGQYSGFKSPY
The settings on record: chimera 280–284 of P2X4.
Method: as §1, §3

Assay [5] concerns P2X7R left flipper point mutant T282A. Briefly: Two-electrode voltage clamp of ATP-evoked currents in Xenopus oocytes. The format is cell-based, human.
Method: as §1, §2
The target of assay [6] is T4, chimeric P2X7/1 receptor 89–94 (Homo sapiens, UniProt Q99572, I21V/M24R/N16P/N25R/Q22R/R20V/S23N/T19I/T90V/T94V/Y26L).
T4 construct: expressed in transfected cells; host or cells: Xenopus laevis oocytes (cRNA injection)
T4 sequence (Q99572 1-595 N16P/T19I/R20V/I21V/Q22R/S23N/M24R/N25R/Y26L/T90V/T94V): T3 sequence (Q99572 1-595 N16P/T19I/R20V/I21V/Q22R/S23N/M24R/N25R/Y26L/D280T/K281R/T282D/T283V/N284E) with T90V, T94V, T280D, R281K, D282T, V283T, E284N
Set-up: method as in Allsopp et al., 2017. The settings on record: chimera 89–94; ref Allsopp et al., 2017; cited from earlier work.

Assay [7] deals with T5, chimeric P2X7/1 receptor 279–285 (left flipper) (Homo sapiens, UniProt Q99572, DEL279-281/I21V/M24R/N16P/N25R/N284E/Q22R/R20V/S23N/T19I/T282Y/T283E/V285K/Y26L).
T5 construct: expressed in transfected cells; host or cells: Xenopus laevis oocytes (cRNA injection)
T5 sequence (Q99572 with tags, fused parts or gaps N16P/T19I/R20V/I21V/Q22R/S23N/M24R/N25R/Y26L/DEL279-281/T282Y/T283E/N284E/V285K): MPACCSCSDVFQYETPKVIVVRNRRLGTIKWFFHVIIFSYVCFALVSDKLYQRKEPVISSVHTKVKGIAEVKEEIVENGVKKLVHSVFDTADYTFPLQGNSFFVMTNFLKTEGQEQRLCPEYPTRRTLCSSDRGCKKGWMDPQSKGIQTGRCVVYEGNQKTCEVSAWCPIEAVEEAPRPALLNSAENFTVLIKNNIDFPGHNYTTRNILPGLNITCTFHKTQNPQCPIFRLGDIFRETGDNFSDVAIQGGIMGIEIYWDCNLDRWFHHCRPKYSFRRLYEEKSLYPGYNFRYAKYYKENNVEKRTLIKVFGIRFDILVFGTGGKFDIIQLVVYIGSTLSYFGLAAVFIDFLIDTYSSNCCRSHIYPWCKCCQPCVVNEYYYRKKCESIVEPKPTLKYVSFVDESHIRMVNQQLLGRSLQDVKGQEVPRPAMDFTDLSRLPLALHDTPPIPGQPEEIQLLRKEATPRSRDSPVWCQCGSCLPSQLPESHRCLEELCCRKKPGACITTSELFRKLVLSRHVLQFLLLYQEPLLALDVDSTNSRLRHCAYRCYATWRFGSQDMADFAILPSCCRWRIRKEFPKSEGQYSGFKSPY
Also on record: method as in Allsopp et al., 2017. The following applies: chimera 279–285; ref Allsopp et al., 2017; cited from earlier work.

Molecules are shown by their SMILES. Changes are numbered by the printed parent chain.

What is called IC50 is the midpoint of a concentration-inhibition curve. A lower IC50 goes with inhibition by little substance.

T2 sequence (Q99572 whole entry N16P/T19I/R20V/I21V/Q22R/S23N/M24R/N25R/Y26L/L97P): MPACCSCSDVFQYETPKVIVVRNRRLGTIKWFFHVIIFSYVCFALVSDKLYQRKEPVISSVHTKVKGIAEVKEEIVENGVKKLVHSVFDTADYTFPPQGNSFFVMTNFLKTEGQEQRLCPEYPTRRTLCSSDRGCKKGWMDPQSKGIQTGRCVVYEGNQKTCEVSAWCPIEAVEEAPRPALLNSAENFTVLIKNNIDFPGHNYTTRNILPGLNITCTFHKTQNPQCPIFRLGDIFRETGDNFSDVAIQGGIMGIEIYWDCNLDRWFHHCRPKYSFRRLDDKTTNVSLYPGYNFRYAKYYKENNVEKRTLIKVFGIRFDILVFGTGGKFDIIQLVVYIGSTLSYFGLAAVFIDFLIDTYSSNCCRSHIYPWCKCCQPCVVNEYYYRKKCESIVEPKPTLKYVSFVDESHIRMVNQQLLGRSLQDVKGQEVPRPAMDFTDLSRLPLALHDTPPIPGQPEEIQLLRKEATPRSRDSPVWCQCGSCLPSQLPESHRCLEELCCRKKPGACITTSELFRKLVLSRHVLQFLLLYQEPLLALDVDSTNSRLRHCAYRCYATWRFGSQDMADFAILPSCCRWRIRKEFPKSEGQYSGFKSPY
T1 sequence (P51575 whole entry): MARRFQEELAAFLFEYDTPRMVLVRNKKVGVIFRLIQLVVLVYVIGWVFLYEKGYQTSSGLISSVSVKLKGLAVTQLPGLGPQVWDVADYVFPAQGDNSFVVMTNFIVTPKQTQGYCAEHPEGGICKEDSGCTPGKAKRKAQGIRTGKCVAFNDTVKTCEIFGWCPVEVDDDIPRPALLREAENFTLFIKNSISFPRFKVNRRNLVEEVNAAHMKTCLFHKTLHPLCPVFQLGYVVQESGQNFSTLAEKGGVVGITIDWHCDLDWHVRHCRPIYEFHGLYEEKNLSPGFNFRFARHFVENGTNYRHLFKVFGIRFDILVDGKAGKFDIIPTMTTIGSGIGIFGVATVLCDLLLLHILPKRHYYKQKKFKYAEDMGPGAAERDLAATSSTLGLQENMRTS
Method for P2X7R point mutant L97P: as §1, §2

On to `Cl.Clc1cccc(-c2nnnn2Cc2cccnc2)c1Cl.O` [A438079, 3-(5-(2,3-dichlorophenyl)-1H-tetrazol-1-yl)methyl pyridine hydrochloride hydrate], for which, on hP2X1R, the “inhibition of ATP (EC90)-evoked currents” value was “ineffective”.
With `COc1ccc(CC(=O)NC(N=C(NC#N)Nc2cccc3ncccc23)C(C)(C)C)cc1OC` (stereo not drawn) [A740003, N-[1-[[(cyanoamino)(5-quinolinylamino)methylene]amino]-2,2-dimethylpropyl]-3,4-dimethoxybenzeneacetamide], at P2X7R point mutant L97P, inhibition was half-maximal at 398 nM (IC50). Moreover, the “fold decrease in antagonist sensitivity/affinity relative to P2X7-2Nβ” value in [1] is listed as approximately 4 fold. For the same molecule, the “effect on antagonist sensitivity relative to P2X7-2Nβ” value in assay [2] and in assay [5] was “no effect” in each case. The “fold decrease in antagonist sensitivity relative to P2X7-2Nβ” value in assay [3] is listed as approximately 3 fold; in assay [4], approximately 10 fold.
As for `Cl.Cl.O=C(CC12CC3CC(CC(C3)C1)C2)Nc1cccc2nc(NCCNCCO)ccc12` [AZ10606120, N-[2-[[2-[(2-hydroxyethyl)amino]ethyl]amino]-5-quinolinyl]-2-tricyclo[3.3.1.13,7]dec-1-ylacetamide dihydrochloride], the “fold decrease in antagonist affinity” value in [6] is more than 300 fold. Also, the “effect on antagonist sensitivity” value in assay [7] was “no effect”.

The record behind these values is paper PMC5896373 (Molecular Pharmacology, 2018).
